Laboratory results from patent publication US12233060B2, “Inhibitors of Ataxia-Telangiectasia Mutated and Rad3-related protein kinase (ATR) for use in methods of treating cancer” (THE INSTITUTE OF CANCER RESEARCH: ROYAL CANCER HOSPITAL, priority 2016, dated 2025).

How the values were obtained:
[1] = test system: HCT116 ARID1A−/− xenografts; assay: In vivo efficacy, HCT116 ARID1A−/− subcutaneous xenografts; parameters: species or system mice
Method: (§1) FIG. 3. In vivo ARID1A/ATR synthetic lethality. A. Schematic of VX-970 therapy experiment in mice bearing established HCT116 ARID1A^+/+ and ARID1A^−/− xenografts. Cells were inoculated subcutaneously into nude mice and tumors allowed to establish for 10 days. Mice were then randomized to treatment regimens of either VX-970 (60 mg/kg, 4× weekly by oral gavage) or vehicle. Mice were then treated for a subsequent 40 days. Tumor volume was monitored twice weekly. B. Relative tumor volume plot from (A) showing efficacy of VX-970 and selectivity for ARID1A^−/− xenografts* p=0.024, ANOVA. C. Schematic of tumor incidence experiment in mice with non-established HCT116 ARID1A^+/+ and ARID1A^−/− xenografts. Mice were inoculated with cells as before, randomized and then treated with VX-970. VX-970 or vehicle treatment was initiated on the day of cell implantation. Tumor volume was monitored twice weekly and overall tumour incidence was assessed 40 days later. D. Bar chart of incidence 40 days after implantation of HCT116 ARID1A^+/+ and ARID1A^−/− cells. Each group contained 15 animals and fractions above bars indicate the number of animals in which a measurable xenograft formed. *p=0.027 Fisher's exact test. E and F. Tumor growth in experiment described in (C). *p=0.015 ANOVA. G. VX-970 dose response curves from TOV21G (ARID1A mutant) and RMG1 (ARID1A wildtype) cells. Cells were exposed to VX-970 for 5 days. […] PARP-1, cleaved PARP-1 (85 kDa fragment) and tubulin were detected by western blot. […] Caspase3/7 activity was assessed using Caspase-Glo and total cellular viability was estimated using CellTitre-Glo. Luminescence ratios for Caspase-Glo (i.e. apoptotic cells) and CellTitre-Glo (ie viable cells) was determined for each dose and normalized to DMSO treated samples. *Student's t-test, p<0.05. […]
In vivo efficacy studies were performed using HCT116 […], HCT116 ARID1A^−/− and TOV21G cells injected subcutaneously in the flank of female CD-1 Nude mice. […] Tumours were measured manually by calliper trice weekly and animals were sacrificed when tumours reached >15 mm in any direction.

[2] = test system: HCT116 ARID1A+/+ and ARID1A−/− cells; assay: Apoptosis assay (caspase-3/7 activity); type: cell-based, human; conditions: 24 hours exposure; p<0.05 Student's t-test
Method: as §1, with “Mice were inoculated with cells as before, randomized and then treated with VX-970. VX-970 or vehicle treatment was initiated on the day of cell implantation.” left out, “later.” for “later. D. Bar chart of incidence 40 days after implantation of HCT116 ARID1A^+/+ and ARID1A^−/− cells. Each group contained 15 animals and fractions above bars indicate the number of animals in which a measurable xenograft formed. *p=0.027 Fisher's exact test. E and F. Tumor growth in experiment described in (C). *p=0.015 ANOVA. G. VX-970 dose response curves from TOV21G (ARID1A mutant) and RMG1 (ARID1A wildtype) cells. Cells were exposed to VX-970 for 5 days.”
FIG. 5. […] The percentage of cells in G2/M was measured by FACS following PI staining. […] A minimum of 50 anaphases were scored in 3 biological replicate experiments. *p=0.023, Student's t-test. […]

Compound: CNCc1ccc(-c2cc(-c3nc(-c4ccc(S(=O)(=O)C(C)C)cc4)cnc3N)on2)cc1 [VX-970, 5-[4-(Isopropylsulfonyl)phenyl]-3-(3-{4-[(methylamino)methyl]phenyl}-1,2-oxazol-5-yl)-2-pyrazinamine]
- growth of established ARID1A−/− xenografts ([1]; 60 mg/kg, 4x weekly oral gavage, 40 days): significantly inhibited the growth
- growth of ARID1A−/− tumours under continued treatment ([1]; non-established xenograft experiment, p=0.015 ANOVA): dramatically slowed the growth
- frequency of ARID1A−/− tumour formation ([1]; treatment from day of cell implantation, incidence 40 days later, 15 animals per group): 27%
- caspase-3/7 activation, ARID1A−/− vs ARID1A+/+ [2]: higher caspase-3/7 activation
